A value given as a limit tells only on which side of the number the result lay.

This test deals with Protein farnesyltransferase (Homo sapiens, UniProt P49354+P49356). Put plainly: FPT inhibitory activity was determined by the ability to inhibit the transfer of [3H]farnesyl from farnesyl pyrophosphate to H-ras-CLVS. It counts as protein-complex assay.
Molecule `N#CN/C(=N/c1ccncc1)N1CCC(=C2c3ccc(Cl)cc3CCc3cc(Br)cnc32)CC1` displayed an IC50 of under 110 nM. For `N#CN/C(=N/Cc1cc[n+]([O-])cc1)N1CCC(=C2c3ccc(Cl)cc3CCc3cc(Br)cnc32)CC1` the value was 6 nM. For `CC(C)c1ccc(N/C(=N\C#N)N2CCC(=C3c4ccc(Cl)cc4CCc4cc(Br)cnc43)CC2)cc1` the value was 150 nM; for `O=C(Cc1ccc[n+]([O-])c1)N1CCC([C@H]2c3ncc(Br)cc3CCc3cc(Cl)cc(Br)c32)CC1`, 8.2 nM; for `N#CN/C(=N/C1CCCCC1)N1CCC(=C2c3ccc(Cl)cc3CCc3cc(Br)cnc32)CC1`, 20 nM. For `N#CN=C(Nc1ccc(F)cc1)N1CCC(=C2c3ccc(Cl)cc3CCc3cc(Br)cnc32)CC1`, the IC50 was 38 nM. For `N#CN=C(NCC1CCNCC1)N1CCC(=C2c3ccc(Cl)cc3CCc3cc(Br)cnc32)CC1` the value was 18 nM; for `N#CN/C(=N/CC1CCN(C(N)=O)CC1)N1CCC(=C2c3ccc(Cl)cc3CCc3cc(Br)cnc32)CC1`, 6 nM.

Molecule `CCOC(=O)N1CCC(NC(=NC#N)N2CCC(=C3c4ccc(Cl)cc4CCc4cc(Br)cnc43)CC2)CC1` came in with an IC50 of 42 nM. In the case of `N#CN/C(=N/Cc1ccc2c(c1)OCO2)N1CCC(=C2c3ccc(Cl)cc3CCc3cc(Br)cnc32)CC1` it was 240 nM.

Turning to `CCCCNC(=NC#N)N1CCC(=C2c3ccc(Cl)cc3CCc3cc(Br)cnc32)CC1`, half-maximal inhibition (IC50) required 105 nM.

Consider `N#CN/C(=N/CCc1ccncc1)N1CCC(=C2c3ccc(Cl)cc3CCc3cc(Br)cnc32)CC1`, for which the IC50 was found to be 30 nM. In the case of `N#CN=C(N)N1CCC(=C2c3ccc(Cl)cc3CCc3cc(Br)cnc32)CC1` it was 2600 nM; in that of `N#CN/C(=N/c1ccccc1)N1CCC(=C2c3ccc(Cl)cc3CCc3cccnc32)CC1`, 86 nM. In the case of `N#CN/C(=N/CCO)N1CCC(=C2c3ccc(Cl)cc3CCc3cc(Br)cnc32)CC1` it was 170 nM. For `N#CN=C(NCc1ccccc1)N1CCC(=C2c3ccc(Cl)cc3CCc3cc(Br)cnc32)CC1` the value was 230 nM. `N#CN=C(Nc1ccc2c(c1)COCO2)N1CCC(=C2c3ccc(Cl)cc3CCc3cc(Br)cnc32)CC1`: the IC50 was determined as 15 nM.

As for `CC(C)NC(=NC#N)N1CCC(=C2c3ccc(Cl)cc3CCc3cc(Br)cnc32)CC1`, the IC50 was found to be 124 nM.

For the molecule `COc1ccc(C/N=C(/NC#N)N2CCC(=C3c4ccc(Cl)cc4CCc4cc(Br)cnc43)CC2)cc1`, half-maximal inhibition (IC50) was put at 310 nM. For `N#CN=C(Nc1ccc2c(c1)OCO2)N1CCC(=C2c3ccc(Cl)cc3CCc3cc(Br)cnc32)CC1` the value was 38 nM; for `N#CN=C(NCc1cccnc1)N1CCC(=C2c3ccc(Cl)cc3CCc3cc(Br)cnc32)CC1`, 15 nM; for `CN(C)CCCC/N=C(/NC#N)N1CCC(=C2c3ccc(Cl)cc3CCc3cc(Br)cnc32)CC1`, 74 nM.

In turn, `CN(C)c1ccc(CNC(=NC#N)N2CCC(=C3c4ccc(Cl)cc4CCc4cc(Br)cnc43)CC2)cc1` gave an IC50 of 100 nM. In turn, `N#C/N=C(\Nc1ccc(OC(F)(F)F)cc1)N1CCC(=C2c3ccc(Cl)cc3CCc3cc(Br)cnc32)CC1` gave an IC50 of 320 nM. In the case of `N#CN=C(NCc1ccc[n+]([O-])c1)N1CCC(=C2c3ccc(Cl)cc3CCc3cc(Br)cnc32)CC1` it was 12 nM; in that of `N#CN/C(=N/CCOCCO)N1CCC(=C2c3ccc(Cl)cc3CCc3cc(Br)cnc32)CC1`, 84 nM; in that of `N#CN=C(Nc1ccccc1)N1CCC(=C2c3ccc(Cl)cc3CCc3cc(Br)cnc32)CC1`, 116 nM.

The molecule `N#C/N=C(\Nc1ccc([N+](=O)[O-])cc1)N1CCC(=C2c3ccc(Cl)cc3CCc3cc(Br)cnc32)CC1` came in with an IC50 of 62 nM. As to `CS(=O)(=O)c1ccc(N/C(=N\C#N)N2CCC(=C3c4ccc(Cl)cc4CCc4cc(Br)cnc43)CC2)cc1`, the IC50 was found to be 82 nM. In the case of `N#CN/C(=N/CCCn1ccnc1)N1CCC(=C2c3ccc(Cl)cc3CCc3cc(Br)cnc32)CC1` it was 35 nM; in that of `N#CN=C(NCCc1cnc[nH]1)N1CCC(=C2c3ccc(Cl)cc3CCc3cc(Br)cnc32)CC1`, 58 nM. For `N#CN=C(NCC1CCCCC1)N1CCC(=C2c3ccc(Cl)cc3CCc3cc(Br)cnc32)CC1` the value was 199 nM; for `N#CN/C(=N/Cc1ccccn1)N1CCC(=C2c3ccc(Cl)cc3CCc3cc(Br)cnc32)CC1`, 29 nM. For `N#CN=C(NC1CC1)N1CCC(=C2c3ccc(Cl)cc3CCc3cc(Br)cnc32)CC1` the value was 155 nM; for `N#CN=C(Nc1ccc(C#N)cc1)N1CCC(=C2c3ccc(Cl)cc3CCc3cc(Br)cnc32)CC1`, 32 nM. Take `N#CN/C(=N/Cc1ccc[n+]([O-])c1)N1CCC([C@H]2c3ncc(Br)cc3CCc3cc(Cl)cc(Br)c32)CC1`: it took 1.7 nM to reach half-maximal inhibition (IC50). For `O=C(CN1CCC(=C2c3ccc(Cl)cc3CCc3cccnc32)CC1)c1ccccc1` the value was 15800 nM.

Usually IC50 stands for the point on the concentration scale where inhibition reaches its midpoint. Read a low IC50 as greater potency in that assay.

These data come from ChEMBL document CHEMBL1135942, “Synthesis of 5,6-dihydro-11H-benzo[5,6]-cyclohepta[1,2-b]pyridin-11-ylidene)-1-piperidine-N-cyanoguanidine derivatives as inhibitors of ras farnesyl protein transferase” (Bioorg Med Chem Lett, 2002).
